From ChEMBL document CHEMBL1134910 (Bioorg Med Chem Lett, 2002)
pKi: −log10 of the molar value.

What was measured:
[1] = target: Adenosine receptor A2a (Sus scrofa)
Adenosine receptor A2a = Adenosine receptor A2a (Rattus norvegicus, UniProt P30543)
Description: Receptor binding affinity for the adenosine A2A receptor was determined using [3H]ZM-241385 as a radioligand in rat

Adenosine receptor A3 = target: T1, Adenosine receptor A3 (Homo sapiens, UniProt P0DMS8); assay: Binding affinity for Adenosine A3A receptor
T1 sequence (P0DMS8 whole entry): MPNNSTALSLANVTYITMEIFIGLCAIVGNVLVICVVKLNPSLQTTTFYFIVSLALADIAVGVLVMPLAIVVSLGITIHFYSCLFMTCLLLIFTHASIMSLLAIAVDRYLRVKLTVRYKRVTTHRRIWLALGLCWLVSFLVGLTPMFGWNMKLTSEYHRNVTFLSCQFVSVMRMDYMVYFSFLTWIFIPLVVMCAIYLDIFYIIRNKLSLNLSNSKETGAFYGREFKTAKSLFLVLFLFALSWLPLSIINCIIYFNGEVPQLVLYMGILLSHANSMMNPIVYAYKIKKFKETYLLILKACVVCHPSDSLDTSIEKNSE

Adenosine receptor A1 = target: T2, Adenosine receptor A1 (Homo sapiens, UniProt P30542); assay: Binding affinity for adenosine (ADO) A1 receptor in CHO cells; format: cell-based
T2 sequence (P30542 whole entry): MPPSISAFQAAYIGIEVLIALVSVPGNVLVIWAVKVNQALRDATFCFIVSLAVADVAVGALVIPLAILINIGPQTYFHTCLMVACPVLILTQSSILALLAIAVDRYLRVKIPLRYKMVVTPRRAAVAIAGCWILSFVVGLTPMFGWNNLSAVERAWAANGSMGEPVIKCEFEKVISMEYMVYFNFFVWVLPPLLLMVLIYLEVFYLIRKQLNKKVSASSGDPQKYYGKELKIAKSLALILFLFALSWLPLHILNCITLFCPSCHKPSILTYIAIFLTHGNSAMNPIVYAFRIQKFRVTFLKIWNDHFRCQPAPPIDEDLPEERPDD

Chain of Adenosine receptor A2a (P30543 whole entry): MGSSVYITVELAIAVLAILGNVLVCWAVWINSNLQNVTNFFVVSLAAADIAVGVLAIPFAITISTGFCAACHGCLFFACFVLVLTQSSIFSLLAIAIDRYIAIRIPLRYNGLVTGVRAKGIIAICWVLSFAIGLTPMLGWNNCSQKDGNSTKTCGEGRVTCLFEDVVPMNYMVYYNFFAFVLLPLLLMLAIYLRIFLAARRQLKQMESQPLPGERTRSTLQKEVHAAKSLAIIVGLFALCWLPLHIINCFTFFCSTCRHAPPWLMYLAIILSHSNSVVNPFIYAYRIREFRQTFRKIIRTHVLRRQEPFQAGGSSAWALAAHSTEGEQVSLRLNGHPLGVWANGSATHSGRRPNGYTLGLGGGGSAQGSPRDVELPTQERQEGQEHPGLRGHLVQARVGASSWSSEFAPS

Row | Compound | pKi [1] | pKi (Adenosine receptor A2a) | pKi (Adenosine receptor A3) | pKi (Adenosine receptor A1)
1 | Cc1cc(-c2ccccc2)nn1-c1nc(N)c2ncn([C@@H]3O[C@H](CO)[C@@H](O)[C@H]3O)c2n1 | < 4.00 |  |  | 
2 | Nc1nc(-c2cn[nH]c2)nc2c1ncn2[C@@H]1O[C@H](CO)[C@@H](O)[C@H]1O | < 4.00 | < 4.00 |  | 
3 | CN(C)C(=O)c1cnn(-c2nc(N)c3ncn([C@@H]4O[C@H](CO)[C@@H](O)[C@H]4O)c3n2)c1 | 6.36 | 6.85 |  | 
4 | COc1ccc(-c2cnn(-c3nc(N)c4ncn([C@@H]5O[C@H](CO)[C@@H](O)[C@H]5O)c4n3)c2)cc1 | 6.25 | 6.72 |  | 
5 | Cn1cc(-c2nc(N)c3ncn([C@@H]4O[C@H](CO)[C@@H](O)[C@H]4O)c3n2)cn1 | < 4.00 | < 4.00 |  | 
6 | Nc1nc(-c2cnn(CC3CCCCC3)c2)nc2c1ncn2[C@@H]1O[C@H](CO)[C@@H](O)[C@H]1O | 6.06 | 6.66 |  | 
7 | Nc1nc(-c2cnn(CCCC3CCCCC3)c2)nc2c1ncn2[C@@H]1O[C@H](CO)[C@@H](O)[C@H]1O | 5.18 | 5.58 |  | 
8 | CNC(=O)Cn1cc(-c2nc(N)c3ncn([C@@H]4O[C@H](CO)[C@@H](O)[C@H]4O)c3n2)cn1 | < 4.00 | < 4.00 |  | 
9 | CN(C)C(=O)Cn1cc(-c2nc(N)c3ncn([C@@H]4O[C@H](CO)[C@@H](O)[C@H]4O)c3n2)cn1 | < 4.00 | 4.68 |  | 
10 | CCCCc1c(C)nn(-c2nc(N)c3ncn([C@@H]4O[C@H](CO)[C@@H](O)[C@H]4O)c3n2)c1C | < 4.00 |  |  | 
11 | Nc1nc(-c2cnn(Cc3ccccc3)c2)nc2c1ncn2[C@@H]1O[C@H](CO)[C@@H](O)[C@H]1O | 5.80 | 5.79 |  | 
12 | CCCc1c(C)nn(-c2nc(N)c3ncn([C@@H]4O[C@H](CO)[C@@H](O)[C@H]4O)c3n2)c1C | < 4.00 |  |  | 
13 | CCOC(=O)c1cnn(-c2nc(N)c3ncn([C@@H]4O[C@H](CO)[C@@H](O)[C@H]4O)c3n2)c1 | 5.89 | 7.22 |  | 
14 | Nc1nc(-c2cnn(CCc3ccccc3)c2)nc2c1ncn2[C@@H]1O[C@H](CO)[C@@H](O)[C@H]1O | 5.23 | 5.65 |  | 
15 | CCCCCCCCCCn1cc(-c2nc(N)c3ncn([C@@H]4O[C@H](CO)[C@@H](O)[C@H]4O)c3n2)cn1 | < 4.00 | 5.21 |  | 
16 | Nc1nc(N/N=C\C2CCCCC2)nc2c1ncn2[C@@H]1O[C@H](CO)[C@@H](O)[C@H]1O |  | 7.18 |  | 
17 | Cc1ccc(-c2cnn(-c3nc(N)c4ncn([C@@H]5O[C@H](CO)[C@@H](O)[C@H]5O)c4n3)c2)cc1 | 6.31 | 6.72 |  | 
18 | CCCCCn1cc(-c2nc(N)c3ncn([C@@H]4O[C@H](CO)[C@@H](O)[C@H]4O)c3n2)cn1 | 5.67 | 5.59 | < 5.00 | 
19 | Nc1nc(-c2cnn(CC(=O)O)c2)nc2c1ncn2[C@@H]1O[C@H](CO)[C@@H](O)[C@H]1O | < 4.00 | < 4.00 |  | 
20 | CCNC(=O)Cn1cc(-c2nc(N)c3ncn([C@@H]4O[C@H](CO)[C@@H](O)[C@H]4O)c3n2)cn1 | < 4.00 | < 4.00 |  | 
21 | CNC(=O)c1cnn(-c2nc(N)c3ncn([C@@H]4O[C@H](CO)[C@@H](O)[C@H]4O)c3n2)c1 [REGADENOSON ANHYDROUS] |  |  | < 5.00 | < 4.78
22 | CC(C)(C)c1ccc(Cn2cc(-c3nc(N)c4ncn([C@@H]5O[C@H](CO)[C@@H](O)[C@H]5O)c4n3)cn2)cc1 | 5.62 | 5.28 |  | 
23 | NC(=O)c1cnn(-c2nc(N)c3ncn([C@@H]4O[C@H](CO)[C@@H](O)[C@H]4O)c3n2)c1 | 5.87 | 6.46 |  | 
24 | CCCNC(=O)c1cnn(-c2nc(N)c3ncn([C@@H]4O[C@H](CO)[C@@H](O)[C@H]4O)c3n2)c1 | 6.92 | 7.30 |  | 
25 | CCNC(=O)c1cnn(-c2nc(N)c3ncn([C@@H]4O[C@H](CO)[C@@H](O)[C@H]4O)c3n2)c1 | 6.42 | 7.22 |  | 
26 | C=CCCCn1cc(-c2nc(N)c3ncn([C@@H]4O[C@H](CO)[C@@H](O)[C@H]4O)c3n2)cn1 | 5.77 | 6.33 |  | 
